Data: PubChem BioAssay AID1963874 (Molecular Pharmacology Branch, DTP, NCI, 2024)

System: 253994-281-T-J1-PDC KRAS-mutant spheroids with HUVEC/MSC, viability
Assay: Anticancer human tumor 253994-281-T-J1-PDC patient-derived colorectal carcinoma cell line growth inhibition [KRAS2]
Conditions: for IC50: curve of first compound; for viability, T/C: stronger effect = lower value
How it was run: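 KRAS-mutant tumor cells were grown as spheroids with HUVEC endothelial cells and human MSCs as stroma. Targeted agents were tested alone and with KRAS pathway inhibitors. Doses started at or near clinical Cmax, or 10 microM, descending half-log.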

[1] = second compound 0.1 µM, first compound 0.0316 µM
[2] = second compound 0.1 µM, first compound 0.1 µM
[3] = second compound 0.1 µM, first compound 0.316 µM
[4] = second compound 0.1 µM, first compound 1 µM
[5] = second compound 0.1 µM, first compound 3.16 µM
[6] = second compound 0.1 µM, first compound 10 µM
[7] = second compound 0.316 µM, first compound 0.0316 µM
[8] = second compound 0.316 µM, first compound 0.1 µM
[9] = second compound 0.316 µM, first compound 0.316 µM
[10] = second compound 0.316 µM, first compound 1 µM
[11] = second compound 0.316 µM, first compound 3.16 µM
[12] = second compound 0.316 µM, first compound 10 µM
[13] = second compound 1 µM, first compound 0.0316 µM
[14] = second compound 1 µM, first compound 0.1 µM
[15] = second compound 1 µM, first compound 0.316 µM
[16] = second compound 1 µM, first compound 1 µM
[17] = second compound 1 µM, first compound 3.16 µM
[18] = second compound 1 µM, first compound 10 µM
[19] = second compound 3.16 µM, first compound 0.0316 µM
[20] = second compound 3.16 µM, first compound 0.1 µM
[21] = second compound 3.16 µM, first compound 0.316 µM
[22] = second compound 3.16 µM, first compound 1 µM
[23] = second compound 3.16 µM, first compound 3.16 µM
[24] = second compound 3.16 µM, first compound 10 µM
[25] = second compound 10 µM, first compound 0.0316 µM
[26] = second compound 10 µM, first compound 0.1 µM
[27] = second compound 10 µM, first compound 0.316 µM
[28] = second compound 10 µM, first compound 1 µM
[29] = second compound 10 µM, first compound 3.16 µM
[30] = second compound 10 µM, first compound 10 µM
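Note: spheroids exposed to agents for seven days before readout.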
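Throughout, for viability, T/C: percent of DMSO vehicle control viability.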

Row | Structure (SMILES) | IC50 (second compound 0.1 µM) [nM] | IC50 (second compound 0.316 µM) [nM] | IC50 (second compound 1 µM) [nM] | IC50 (second compound 3.16 µM) [nM] | IC50 (second compound 10 µM) [nM] | viability, T/C [1] [%] | viability, T/C [2] [%] | viability, T/C [3] [%] | viability, T/C [4] [%] | viability, T/C [5] [%] | viability, T/C [6] [%] | viability, T/C [7] [%] | viability, T/C [8] [%] | viability, T/C [9] [%] | viability, T/C [13] [%] | viability, T/C [14] [%] | viability, T/C [19] [%] | viability, T/C [20] [%] | viability, T/C [25] [%] | viability, T/C [26] [%] | further results
1 | COc1cc(Nc2ncc3c(n2)-c2ccc(Cl)cc2C(c2c(F)cccc2OC)=NC3)ccc1C(=O)O + COc1cc2nc(C)nc(NC(C)c3cc(N)cc(C(F)(F)F)c3)c2cc1OC1CCOC1 | < 31.6 | < 31.6 | < 31.6 | < 31.6 | < 31.6 | 63.4 | 29.7 | 26.6 | 35.2 | 39.9 | 38.6 | 51.4 | 26.8 | 26.5 | 49 | 34.3 | 50.1 | 30 | 38.3 | 31.4 | viability, T/C [10]: 33.1%; viability, T/C [11]: 35.2%; viability, T/C [12]: 33.6%; viability, T/C [15]: 22.4%; viability, T/C [16]: 27.5%; viability, T/C [17]: 31%; viability, T/C [18]: 34.5%; viability, T/C [21]: 26%; viability, T/C [22]: 29%; viability, T/C [23]: 41.7%; viability, T/C [24]: 45.1%; viability, T/C [27]: 25.7%; viability, T/C [28]: 31.6%; viability, T/C [29]: 35.7%; viability, T/C [30]: 29.1%
2 | COc1cc2nccc(Oc3ccc(NC(=O)C4(C(=O)Nc5ccc(F)cc5)CC4)cc3)c2cc1OC + COc1cc2nc(C)nc(NC(C)c3cc(N)cc(C(F)(F)F)c3)c2cc1OC1CCOC1 | > 10000 | > 10000 | 5930 | 4910 | 5180 | 99.1 | 101 | 118 | 89.4 | 87.6 | 52.2 | 106 | 110 | 113 | 101 | 106 | 99.6 | 97.3 | 93.8 | 89.1 | viability, T/C [10]: 109%; viability, T/C [11]: 92.2%; viability, T/C [12]: 59.3%; viability, T/C [15]: 101%; viability, T/C [16]: 92.5%; viability, T/C [17]: 76.4%; viability, T/C [18]: 28.3%; viability, T/C [21]: 109%; viability, T/C [22]: 104%; viability, T/C [23]: 70.2%; viability, T/C [24]: 17.7%; viability, T/C [27]: 86.5%; viability, T/C [28]: 82.3%; viability, T/C [29]: 81.7%; viability, T/C [30]: 7.51%
3 | Cn1ncnc1[C@H]1c2n[nH]c(=O)c3cc(F)cc(c23)N[C@@H]1c1ccc(F)cc1 + COc1cc2nc(C)nc(NC(C)c3cc(N)cc(C(F)(F)F)c3)c2cc1OC1CCOC1 | > 100 | > 100 | > 100 | > 100 | > 100 | 92.5 | 78.8 |  |  |  |  | 91.9 | 78.1 |  | 87.1 | 85.3 | 77.2 | 85.5 | 83.7 | 68.3 | viability, T/C (second compound 0.1 µM, first compound 0.000316 µM): 92.5%; viability, T/C (second compound 0.1 µM, first compound 0.001 µM): 95.7%; viability, T/C (second compound 0.1 µM, first compound 0.00316 µM): 79%; viability, T/C (second compound 0.1 µM, first compound 0.01 µM): 90.8%; viability, T/C (second compound 0.316 µM, first compound 0.000316 µM): 80%; viability, T/C (second compound 0.316 µM, first compound 0.001 µM): 84.5%; viability, T/C (second compound 0.316 µM, first compound 0.00316 µM): 86.1%; viability, T/C (second compound 0.316 µM, first compound 0.01 µM): 80.4%; viability, T/C (second compound 1 µM, first compound 0.000316 µM): 88.5%; viability, T/C (second compound 1 µM, first compound 0.001 µM): 92.2%; viability, T/C (second compound 1 µM, first compound 0.00316 µM): 86.6%; viability, T/C (second compound 1 µM, first compound 0.01 µM): 89.1%; viability, T/C (second compound 3.16 µM, first compound 0.000316 µM): 87.5%; viability, T/C (second compound 3.16 µM, first compound 0.001 µM): 86.5%; viability, T/C (second compound 3.16 µM, first compound 0.00316 µM): 91.7%; viability, T/C (second compound 3.16 µM, first compound 0.01 µM): 89.7%; viability, T/C (second compound 10 µM, first compound 0.000316 µM): 80.9%; viability, T/C (second compound 10 µM, first compound 0.001 µM): 84.7%; viability, T/C (second compound 10 µM, first compound 0.00316 µM): 72.6%; viability, T/C (second compound 10 µM, first compound 0.01 µM): 77.7%
